Test system: spontaneously hypertensive rats (SHR)
Experiment: Antihypertensive effect, oral administration to spontaneously hypertensive rats (mean blood pressure and heart rate)
Type: in vivo, rat
Settings: Table 3, SHR, p.o., 3 mg./kg.
Protocol: Antihypertensive effect was determined by oral administration of the test compound to spontaneously hypertensive rats (hereinafter referred to as SHR).
These SHR were anesthetized with ether and chronically embedded with a cannula for determination of blood pressure so that one end of the said cannula may be placed in abdominal aorta and the other end thereof may be projected out of dorsal neck. When rats regained their body weight before operation in more than 1 week from operation, the test compound was given. Determination was made by measuring a mean blood pressure and a heart rate under unanesthetized and unrestrained conditions with the cannula connected to an electronic recording system. The test compound was suspended in a 1% tragacanth gum solution to make up a concentration so as to be a volume of 5 ml./kg. and then orally given.

Structure (SMILES): COc1cc2nc(N3CCN(C(=O)C=Cc4ccncc4)CC3)nc(N)c2cc1OC [compound 45, 2-{4-[3-(Pyridin-4-yl)-acryloyl]-piperazin-1-yl}-4-amino-6,7-dimethoxyquinazoline]
- Changes in average blood pressures after administration (1 hr.): -9 mmHg
- Changes in average blood pressures after administration (3 hrs.): -5 mmHg
- Changes in average blood pressures after administration (6 hrs.): -12 mmHg
- Changes in average blood pressures after administration (24 hrs.): 0 mmHg

Structure (SMILES): COc1cc2nc(N3CCCN(C(=O)C=Cc4ccco4)CC3)nc(N)c2cc1OC [compound 46, 2-{4-[3-(Furan-2-yl)-acryloyl]-homopiperazin-1-yl}-4-amino-6,7-dimethoxyquinazoline]
- Changes in average blood pressures after administration (1 hr.): -20 mmHg
- Changes in average blood pressures after administration (3 hrs.): -10 mmHg
- Changes in average blood pressures after administration (6 hrs.): -12 mmHg
- Changes in average blood pressures after administration (24 hrs.): -8 mmHg

Structure (SMILES): COc1cc2nc(N3CCCN(C(=O)C=Cc4cccs4)CC3)nc(N)c2cc1OC [compound 47, 2-{4-[3-(Thiophen-2-yl)-acryloyl]-homopiperazin-1-yl}-4-amino-6,7-dimethoxyquinazoline]
- Changes in average blood pressures after administration (1 hr.): -22 mmHg
- Changes in average blood pressures after administration (3 hrs.): -13 mmHg
- Changes in average blood pressures after administration (6 hrs.): -17 mmHg
- Changes in average blood pressures after administration (24 hrs.): 2 mmHg

Structure (SMILES): COc1cc2nc(N3CCCN(C(=O)C=Cc4cccnc4)CC3)nc(N)c2cc1OC [compound 48, 2-{4-[3-(Pyridin-3-yl)-acryloyl]-homopiperazin-1-yl}-4-amino-6,7-dimethoxyquinazoline]
- Changes in average blood pressures after administration (1 hr.): -9 mmHg
- Changes in average blood pressures after administration (3 hrs.): 0 mmHg
- Changes in average blood pressures after administration (6 hrs.): 0 mmHg
- Changes in average blood pressures after administration (24 hrs.): 2 mmHg

Source: patent US4189484A, “Antihypertensive quinazoline derivatives” (priority 1977, dated 1980)
